From US7208515B2, “Diphenylmethyl compounds useful as muscarinic receptor antagonists” (Theravance, Inc., priority 2004, dated 2007)
pKi: −log10 of the molar value.

Assays:
[1] = target: T1, hM2 receptor (CHO-K1 cells) (Homo sapiens, UniProt P08172); assay: Blockade of agonist-mediated [35S]GTPγS binding; assay type: biochemical; details: CHO-K1 cells expressing the hM2 receptor; read-out: Ki value for blockade of oxotremorine-stimulated [35S]GTPγS binding
T1 construct: expressed in transfected cells; host or cells: CHO-K1 cells
T1 sequence (P08172 1-466): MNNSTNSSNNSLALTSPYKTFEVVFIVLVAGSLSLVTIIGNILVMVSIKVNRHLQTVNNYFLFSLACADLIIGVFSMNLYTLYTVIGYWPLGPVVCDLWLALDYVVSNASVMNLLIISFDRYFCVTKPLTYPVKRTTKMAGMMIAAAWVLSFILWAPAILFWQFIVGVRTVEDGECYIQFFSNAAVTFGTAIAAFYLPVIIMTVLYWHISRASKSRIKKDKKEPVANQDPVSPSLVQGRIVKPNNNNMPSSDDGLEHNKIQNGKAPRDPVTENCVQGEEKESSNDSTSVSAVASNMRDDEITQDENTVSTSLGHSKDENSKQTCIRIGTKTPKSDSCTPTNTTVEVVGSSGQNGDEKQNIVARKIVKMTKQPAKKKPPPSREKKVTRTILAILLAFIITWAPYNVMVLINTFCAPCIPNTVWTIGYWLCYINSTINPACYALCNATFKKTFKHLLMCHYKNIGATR
Protocol: B. Blockade of Agonist-Mediated [^35S]GTPγS Binding
In a second functional assay, the functional potency of test compounds can be determined by measuring the ability of the compounds to block oxotremorine-stimulated [^35S]GTPγS binding in CHO-K1 cells expressing the hM2 receptor.
At the time of use, frozen membranes were thawed and then diluted in assay buffer with a final target tissue concentration of 5–10 μg protein per well. The membranes were briefly homogenized using a Polytron PT-2100 tissue disrupter and then added to the assay plates.
The EC90 value (effective concentration for 90% maximal response) for stimulation of [^35S]GTPγS binding by the agonist oxotremorine was determined in each experiment.
To determine the ability of a test compound to inhibit oxotremorine-stimulated [^35S]GTPγS binding, the following was added to each well of 96 well plates: 25 μL of assay buffer with [^35S]GTPγS (0.4 nM), 25 μL of oxotremorine(EC90) and GDP (3 μM), 25 μL of diluted test compound and 25 μL CHO cell membranes expressing the hM2 receptor. […] Microscint-20 scintillation liquid (50 μL) was added to each well, and each plate was sealed and radioactivity counted on a topcounter (PerkinElmer). Data were analyzed by nonlinear regression analysis with the GraphPad Prism Software package (GraphPad Software, Inc., San Diego, Calif.) using the non-linear regression, one-site competition equation. […]

[2] = tested on: pilocarpine-evoked salivation; assay: Inhalation guinea pig salivation assay; assay type: in vivo
Protocol: Inhalation Guinea Pig Salivation Assay
Guinea pigs (Charles River, Wilmington, Mass.) weighing 200–350 g were acclimated to the in-house guinea pig colony for at least 3 days following arrival. Test compound or vehicle were dosed via inhalation (IH) over a 10 minute time period in a pie shaped dosing chamber (R&S Molds, San Carlos, Calif.). Test solutions were dissolved in sterile water and delivered using a nebulizer filled with 5.0 mL of dosing solution. Guinea pigs were restrained in the inhalation chamber for 30 minutes. During this time, guinea pigs were restricted to an area of approximately 110 sq. cm. […] Upon completion of nebulization, guinea pigs were evaluated at 1.5, 6, 12, 24, 48, or 72 hrs after treatment.
Guinea pigs were anesthetized one hour before testing with an intramuscular (IM) injection of a mixture of ketamine 43.75 mg/kg, xylazine 3.5 mg/kg, and acepromazine 1.05 mg/kg at an 0.88 mL/kg volume. […] Saliva was collected for 10 minutes, at which point the gauze pad was weighed and the difference in weight recorded to determine the amount of accumulated saliva (in mg). The mean amount of saliva collected for animals receiving the vehicle and each dose of test compound was calculated. […] Results were calculated using result means (n=3 or greater). Confidence intervals (95%) were calculated for each dose at each time point using two-way ANOVA. […]

CNCC(=O)NCCCCCN1CC[C@@H](C(C(N)=O)(c2ccccc2)c2ccccc2)C1 [Example 1]
pKi [1]: > 7.00 | apparent lung selectivity index (ratio of anti-sialagogue ID50 to bronchoprotective ID50) [2]: greater than 5
